The nature of the data set: Phase I clinical trial, pharmacokinetics of loxoprofen sodium eye drops. The settings on record: human, in vivo, topical or ocular; for AUC(0-t): read-out: Average AUC0-t. The protocol:
loxoprofen sodium eye drops: eye drops of different concentrations were prepared according to Example 1; and
2. Research methods: single-center, randomized, double-blind, single and multiple administration dosage escalation designs were used to explore the safety, tolerability and pharmacokinetic characteristics of loxoprofen sodium eye drops. Single administration includes dosages of 0.025 mg (a concentration of 0.5 mg/ml), 0.05 mg (a concentration of 1 mg/ml), 0.1 mg (a concentration of 2 mg/ml), and 0.2 mg (a concentration of 4 mg/mL), with an administration method of once a day, one drop each; and multiple administration includes dosages of 0.05 mg, 0.1 mg, and 0.2 mg, with an administration method of four times a day, one drop each.

Broadly, the Cmax is the peak of the concentration-time curve. In general, Tmax refers to the time at which the peak concentration occurs.

Like-named read-outs stand apart in the source and are kept apart here.

Take `CC(C(=O)O)c1ccc(CC2CCCC2=O)cc1` (stereo not shown) [loxoprofen]: the peak level (0.05 mg, multiple administration (four times a day)) (Cmax) was 2.66 ± 0.6 ng/mL; the Cmax (0.1 mg, multiple administration (four times a day)) was found to be 4.22 ± 1.79 ng/mL; the peak concentration (Cmax) (0.1 mg, single administration) is 3.69 ± 0.88 ng/mL; the concentration (0.2 mg, multiple administration (four times a day)) peaked (Cmax) at 9.46 ± 3.73 ng/mL; the Cmax (0.2 mg, single administration) worked out at 8.73 ± 5.19 ng/mL. Further, the AUC(0-t) (0.05 mg, multiple administration (four times a day), 0.05 mg) amounted to 0.47 ± 0.43 ng·h/mL; the AUC(0-t) (0.1 mg, multiple administration (four times a day), 0.1 mg) is 2.08 ± 1.56 ng·h/mL; the AUC(0-t) (0.1 mg, single administration, 0.1 mg) is 1.71 ± 0.99 ng·h/mL; the AUC(0-t) (0.2 mg, multiple administration (four times a day), 0.2 mg) stood at 8.33 ± 4.4 ng·h/mL; the AUC(0-t) (0.2 mg, single administration, 0.2 mg) stood at 6.82 ± 6.3 ng·h/mL. Further, the time to peak (Tmax) reads like this: (multiple administration (four times a day), 0.05 mg) 12 min; (multiple administration (four times a day), 0.1 mg) 12 min; (multiple administration (four times a day), 0.2 mg) 12 min.

For the origin of these results see patent publication US20240315966A1, “COMPOSITION CONTAINING LOXOPROFEN SODIUM” (GUANGZHOU OCUSUN OPHTHALMIC BIOTECHNOLOGY CO., LTD., priority 2021, published 2024).
